The values that follow come from patent publication US20060189631A1, “Substituted imidazopyrimidines for the prevention and treatment of cancer” (LABORATORIOS S.A.L.V.A.T., S.A., priority 2003, published 2006).

Experiment [1] relates to human colon cancer cell lines HCT-116. Put plainly: Determination of apoptosis (DNA fragmentation into nucleosomes, Cell Death Detection ELISA PLUS). It is filed as cell-based. The conditions noted are these: HCT-116, at 10 μM. On the procedure: To stablish whether the antiproliferative activity of the compounds of the present invention is due to an apoptotic process, and not merely to a necrotic process, the generation of DNA fragments associated to histones (mono- and oligonucleosomes) was determined after incubation of the human colon cancer cell lines HCT-116 with the compounds of the present invention at different concentrations. DNA fragmentation into nucleosomes, which is an indicator of apoptosis phenomena, was quantified by a sandwich immunoassay using monoclonal antibodies directed against DNA and histones (Cell Death Detection ELISA^PLUS, Roche Diagnostics, cat #1920685). The quantity of fragmented DNA was expressed with the Enrichment Factor (EF) parameter, which is a coefficient of absorbance of nucleosomes liberated in the cytosol of the cells cultured in the presence of the products compared with control cells.

For experiment [2], the system named is human colon adenocarcinoma cell lines (HCT-116). Put plainly: Determination of cell proliferation inhibition (Sulforodamine B). It is filed as cell-based. As to conditions: HCT-116, 48 hours treatment. The protocol: The inhibitory capacity of cell proliferation of the compounds was determined in two human colon adenocarcinoma cell lines (HCT-116) obtained at the ATCC (American Type Collection). The cells were seeded in 96-well plates and kept at 37° C. in a CO2 heater for 24 hours to allow cell-substrate-adhesion. Subsequently, cells were treated with the products under study at concentrations comprised between 1 and 100 μM for 48 hours. After the treatment period, the medium was removed and cells were dyed with Sulforodamine B. Finally, decolouration of the dyed cells was carried out with Tris base 10 mM and the plates were read at 493-530 nm in a plate reader. IC50 was calculated as the product concentration inducing a growth inhibition of the 50% compared with control cells not treated.

The target of another experiment is T1, COX-2 (Homo sapiens, UniProt P35354).
T1 sequence (P35354 18-604): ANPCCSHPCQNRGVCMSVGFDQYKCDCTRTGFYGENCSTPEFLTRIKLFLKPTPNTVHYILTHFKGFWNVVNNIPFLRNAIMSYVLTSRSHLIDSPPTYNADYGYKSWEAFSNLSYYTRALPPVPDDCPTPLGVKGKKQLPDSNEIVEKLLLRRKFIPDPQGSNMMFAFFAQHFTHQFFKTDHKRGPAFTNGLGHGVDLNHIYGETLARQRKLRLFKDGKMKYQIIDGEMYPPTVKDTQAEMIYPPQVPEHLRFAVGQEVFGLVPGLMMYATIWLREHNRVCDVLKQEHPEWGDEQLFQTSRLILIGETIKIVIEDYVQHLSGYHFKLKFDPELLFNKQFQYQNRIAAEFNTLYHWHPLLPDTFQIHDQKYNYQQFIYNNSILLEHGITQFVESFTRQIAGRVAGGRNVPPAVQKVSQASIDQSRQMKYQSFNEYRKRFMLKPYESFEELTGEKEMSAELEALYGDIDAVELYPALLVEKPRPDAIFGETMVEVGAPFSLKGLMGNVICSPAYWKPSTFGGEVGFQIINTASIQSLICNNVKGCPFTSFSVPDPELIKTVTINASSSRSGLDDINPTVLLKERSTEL
Put plainly: COX-2 inhibition. It is filed as biochemical.

`Cc1ccc(-c2cc(C(F)(F)F)nn2-c2ccc(S(N)(=O)=O)cc2)cc1` [Celecoxib, reference compound]: the “EF (Apoptosis induction, Enrichment Factor)” value (shortened to “EF”) in experiment [1] is given as “+ (EF < 3)”. The half-inhibitory concentration (IC50) in experiment [2] is greater than 25 µM.

Take `COc1ccc(-c2nc3ncccn3c2-c2ccc(SC)cc2)cc1` [Example 8, 2-(4-Methoxyphenyl)-3-(4-methylsulfanylphenyl)imidazo[1,2-a]pyrimidine]: the IC50 on COX-2 was 5 to 25 µM; in experiment [2], less than 5 µM. Moreover, the “EF” value in experiment [1] is “+++ (EF > 6)”.

As to `CSc1ccc(-c2c(-c3ccc(Br)cc3)nc3ncccn23)cc1` [Example 13, 2-(4-Bromophenyl)-3-(4-methylsulfanylphenyl)imidazo[1,2-a]pyrimidine], the half-inhibitory concentration (IC50) at COX-2 was greater than 25 µM; in experiment [2] it was less than 5 µM. Besides, the “EF” value in experiment [1] is recorded as “+++ (EF > 6)”.

On to `CSc1ccc(-c2nc3ncccn3c2-c2ccc(SC)c(Cl)c2)cc1` [Example 86, 3-(3-Chloro-4-methylsulfanylphenyl)-2-(4-methylsulfanylphenyl)imidazo[1,2-a]pyrimidine], for which the “EF” value in experiment [1] was “+++ (EF > 6)”. Also, the IC50 in experiment [2] is less than 5 µM.

`COc1ccc(-c2nc3ncccn3c2-c2ccc(SC)c(Cl)c2)cc1` [Example 124, 3-(3-Chloro-4-methylsulfanylphenyl)-2-(4-methoxyphenyl)imidazo[1,2-a]pyrimidine]: the figures for the IC50 (against COX-2; in experiment [2]) were greater than 25 µM and less than 5 µM, respectively. Also, in experiment [1], the “EF” value is listed as “+++ (EF > 6)”.

For `COc1ccc(-c2nc3nc(C)ccn3c2-c2ccc(SC)c(Cl)c2)cc1` [Example 125, 3-(3-Chloro-4-methylsulfanylphenyl)-2-(4-methoxyphenyl)-7-methylimidazo[1,2-a]pyrimidine], in experiment [1], the “EF” value was “+++ (EF > 6)”. The same compound registered an IC50 in experiment [2] of 5 to 25 µM.

As for `CSc1ccc(-c2c(-c3cccc(C)c3)nc3ncccn23)cc1Br` [Example 132, 3-(3-Bromo-4-methylsulfanylphenyl)-2-m-tolylimidazo[1,2-a]pyrimidine], the IC50 was greater than 25 µM at COX-2 and less than 5 µM in experiment [2]. Also, in experiment [1], the “EF” value is “+++ (EF > 6)”.

For the compound `CSc1ccc(-c2c(-c3ccc(Cl)cc3)nc3ncccn23)cc1Br` [Example 136, 3-(3-Bromo-4-methylsulfanylphenyl)-2-(4-chlorophenyl)imidazo[1,2-a]pyrimidine], the IC50 is greater than 25 µM on COX-2 and less than 5 µM in experiment [2]. Moreover, the “EF” value in experiment [1] is “+++ (EF > 6)”.

In the case of `COc1ccc(-c2nc3ncccn3c2-c2ccc(SC)c(C)c2)cc1` [Example 138, 2-(4-Methoxyphenyl)-3-(3-methyl-4-methylsulfanylphenyl)imidazo[1,2-a]pyrimidine], the results for the IC50 (against COX-2; in experiment [2]) were greater than 25 µM and less than 5 µM, respectively. In addition, in experiment [1], the “EF” value was “+++ (EF > 6)”.

On to `CCCSc1ccc(-c2c(-c3ccc(OC)cc3)nc3ncccn23)cc1Cl` [Example 148, 3-(3-Chloro-4-propylsulfanylphenyl)-2-(4-methoxyphenyl)imidazo[1,2-a]pyrimidine], for which the values for the IC50 (at COX-2; in experiment [2]) were greater than 25 µM and less than 5 µM, respectively. The “EF” value in experiment [1] is recorded as “+++ (EF > 6)”.

For `COc1ccc(-c2nc3ncccn3c2-c2ccc(SC(C)C)cc2)cc1` [Example 151, 3-(4-Isopropylsulfanylphenyl)-2-(4-methoxyphenyl)imidazo[1,2-a]pyrimidine], the results for the IC50 (against COX-2; in experiment [2]) were greater than 25 µM and less than 5 µM, respectively. Moreover, the “EF” value in experiment [1] is on record as “+++ (EF > 6)”.

Take `Cc1ccc(-c2nc3ncccn3c2-c2ccc(SC(C)C)c(Cl)c2)cc1` [Example 153, 3-(3-Chloro-4-isopropylsulfanylphenyl)-2-p-tolylimidazo[1,2-a]pyrimidine]: the half-inhibitory concentration (IC50) was greater than 25 µM against COX-2 and less than 5 µM in experiment [2]. The “EF” value in experiment [1] is given as “+++ (EF > 6)”.

For the compound `CSc1ccc(-c2nc3ncccn3c2-c2ccc(SC(C)C)c(Cl)c2)cc1` [Example 157, 3-(3-Chloro-4-isopropylsulfanylphenyl)-2-(4-methylsulfanylphenyl)imidazo[1,2-a]pyrimidine], the results for the 50% inhibitory concentration (IC50) (at COX-2; in experiment [2]) were greater than 25 µM and less than 5 µM, respectively. Moreover, the “EF” value in experiment [1] is recorded as “+++ (EF > 6)”.

Regarding `COc1ccc(-c2nc3ncccn3c2-c2ccc([S+](C)[O-])c(Cl)c2)cc1` (stereo not drawn) [Example 189, 3-(3-Chloro-4-methanesulfinylphenyl)-2-(4-methoxyphenyl)imidazo[1,2-a]pyrimidine], the IC50 was greater than 25 µM against COX-2 and 5 to 25 µM in experiment [2]. Further, the “EF” value in experiment [1] was “+++ (EF > 6)”.

As for `CSc1ccc(-c2c(-c3ccc(Cl)cc3)nc3ncccn23)cc1Cl` [Example 238, 3-(3-Chloro-4-methylsulfanylphenyl)-2-(4-chlorophenyl)imidazo[1,2-a]pyrimidine], the concentration for half-maximal inhibition (IC50) is greater than 25 µM against COX-2 and less than 5 µM in experiment [2]. For the same compound, the “EF” value in experiment [1] is “+++ (EF > 6)”.

Regarding `CSc1ccc(-c2c(-c3ccc(F)cc3)nc3ncccn23)cc1Cl` [Example 240, 3-(3-Chloro-4-methylsulfanylphenyl)-2-(4-fluorophenyl)imidazo[1,2-a]pyrimidine], the IC50 against COX-2 was greater than 25 µM; in experiment [2], 5 to 25 µM. In addition, the “EF” value in experiment [1] was “++ (3 < EF < 6)”.

On to `COc1ccc(-c2nc3ncccn3c2-c2ccc3c(c2)C(C)(C)CCS3)cc1` [Example 244, 3-(4,4-Dimethylthiochroman-6-yl)-2-(4-methoxyphenyl)imidazo[1,2-a]pyrimidine], for which the IC50 is greater than 25 µM against COX-2 and less than 5 µM in experiment [2]. The “EF” value in experiment [1] is recorded as “+++ (EF > 6)”.

Take `CC1=C(CC(=O)O)c2cc(F)ccc2/C1=C\c1ccc(S(C)(=O)=O)cc1` [Exisulind, reference compound]: the concentration for half-maximal inhibition (IC50) (against COX-2; in experiment [2]) was greater than 25 µM each time. For the same compound, the “EF” value in experiment [1] is listed as “+ (EF < 3)”.
